Here are results for 21 molecules from patent publication US8404708B2, “Dual NK1/NK3 receptor antagonists” (Hoffmann-La Roche Inc., priority 2004, dated 2013).

The structures appear in SMILES notation.

By Ki is commonly meant a measure of affinity in units of concentration, obtained from inhibition or displacement.

The target of experiment [1] is T1, Recombinant human NK3 (hNK3) receptor (Homo sapiens, UniProt P29371).
T1 construct: expressed in transfected cells
T1 sequence (P29371 1-465): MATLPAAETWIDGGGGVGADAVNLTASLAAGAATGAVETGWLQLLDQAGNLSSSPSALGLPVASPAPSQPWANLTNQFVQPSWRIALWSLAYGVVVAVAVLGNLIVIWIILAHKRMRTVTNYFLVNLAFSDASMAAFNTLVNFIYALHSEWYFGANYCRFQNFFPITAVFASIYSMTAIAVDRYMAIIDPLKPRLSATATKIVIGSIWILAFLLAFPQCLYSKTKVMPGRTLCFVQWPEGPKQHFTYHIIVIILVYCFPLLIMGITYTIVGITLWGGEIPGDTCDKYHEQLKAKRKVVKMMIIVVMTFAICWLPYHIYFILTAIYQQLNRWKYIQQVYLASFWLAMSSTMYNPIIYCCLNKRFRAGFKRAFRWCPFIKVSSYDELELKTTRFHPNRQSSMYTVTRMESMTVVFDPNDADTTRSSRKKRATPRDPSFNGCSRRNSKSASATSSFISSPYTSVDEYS
In words: NK3 receptor binding, [3H]SR142801 displacement, membrane preparations. To be noted: second value of the cell pKi NK1/NK3; hNK3 receptor, [3H]SR142801. The essentials: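 Incubation ran 90 min at room temperature in 50 mM Tris-HCl pH 7.4 with 0.1% BSA, 4 mM MnCl2 and 1 μM phosphoramidon, using about 2.5 μg hNK3 membrane protein per well. Nonspecific binding was defined with 10 μM SB222200, and bound radioactivity was collected on PEI-soaked GF/C filters for scintillation counting.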

The target of another experiment is human NK1 receptor (Homo sapiens, UniProt P25103). In words: NK1 receptor binding, [3H]substance P displacement, CHO cell membranes. To be noted: first value of the cell pKi NK1/NK3; human NK1 receptor, [3H]substance P.
Sequence of human NK1 receptor (P25103 whole entry): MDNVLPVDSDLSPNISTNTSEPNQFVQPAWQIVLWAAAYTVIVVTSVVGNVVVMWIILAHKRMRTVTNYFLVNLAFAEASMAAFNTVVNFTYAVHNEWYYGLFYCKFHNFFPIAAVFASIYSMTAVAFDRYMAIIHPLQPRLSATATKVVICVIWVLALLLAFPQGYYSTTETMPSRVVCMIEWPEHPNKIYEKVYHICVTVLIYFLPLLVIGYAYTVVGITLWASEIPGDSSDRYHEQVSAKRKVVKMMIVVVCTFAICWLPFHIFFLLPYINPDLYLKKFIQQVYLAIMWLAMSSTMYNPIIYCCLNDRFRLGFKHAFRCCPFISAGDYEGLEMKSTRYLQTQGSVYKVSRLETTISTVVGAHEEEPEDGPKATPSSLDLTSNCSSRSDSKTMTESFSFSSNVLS

On to `CN(C(=O)C(C)(C)c1cc(C(F)(F)F)cc(C(F)(F)F)c1)c1cnc(N[C@@H]2CCC[C@H]2O)cc1-c1ccccc1Cl` [Example 152, (1R,2R)-2-(3,5-Bis-trifluoromethyl-phenyl)-N-[4-(2-chloro-phenyl)-6-(2-hydroxy-cyclopentylamino)-pyridin-3-yl]-N-methyl-isobutyramide], for which the Ki in experiment [1] was 7.76 nM; on human NK1 receptor, 0.759 nM.

In the case of `CN(C(=O)C(C)(C)c1cc(C(F)(F)F)cc(C(F)(F)F)c1)c1cnc(N[C@H]2CCC[C@@H]2O)cc1-c1ccccc1Cl` [Example 153, (1S,2S)-2-(3,5-Bis-trifluoromethyl-phenyl)-N-[4-(2-chloro-phenyl)-6-(2-hydroxy-cyclopentylamino)-pyridin-3-yl]-N-methyl-isobutyramide], the Ki in experiment [1] was 4.07 nM; at human NK1 receptor, 0.49 nM.

In the case of `Cc1cc(F)ccc1-c1cc(N[C@H]2CCC[C@@H]2O)ncc1N(C)C(=O)C(C)(C)c1cc(C(F)(F)F)cc(C(F)(F)F)c1` [Example 154, (1S,2S)-2-(3,5-Bis-trifluoromethyl-phenyl)-N-[4-(4-fluoro-2-methyl-phenyl)-6-(2-hydroxy-cyclopentylamino)-pyridin-3-yl]-N-methyl-isobutyramide], the figures for the Ki (in experiment [1]; on human NK1 receptor) were 5.75 nM and 3.16 nM, respectively.

Take `Cc1cc(F)ccc1-c1cc(N2CC[C@H](O)[C@H]2CO)ncc1N(C)C(=O)C(C)(C)c1cc(C(F)(F)F)cc(C(F)(F)F)c1` [Example 155, (2R,3S)-2-(3,5-Bis-trifluoromethyl-phenyl)-N-[4-(4-fluoro-2-methyl-phenyl)-6-(3-hydroxy-2-hydroxymethyl-pyrrolidin-1-yl)-pyridin-3-yl]-N-methyl-isobutyramide]: the Ki was 0.871 nM in experiment [1] and 1.74 nM at human NK1 receptor.

`Cc1cc(F)ccc1-c1cc(N2CC[C@@H](O)[C@H]2CO)ncc1N(C)C(=O)C(C)(C)c1cc(C(F)(F)F)cc(C(F)(F)F)c1` [Example 156, (2R,3R)-2-(3,5-Bis-trifluoromethyl-phenyl)-N-[4-(4-fluoro-2-methyl-phenyl)-6-(3-hydroxy-2-hydroxymethyl-pyrrolidin-1-yl)-pyridin-3-yl]-N-methyl-isobutyramide]: the Ki in experiment [1] is 1.58 nM; at human NK1 receptor, 1.74 nM.

`Cc1cc(F)ccc1-c1cc(N2CC=C[C@H]2CO)ncc1N(C)C(=O)C(C)(C)c1cc(C(F)(F)F)cc(C(F)(F)F)c1` [Example 157, (S)-2-(3,5-Bis-trifluoromethyl-phenyl)-N-[4-(4-fluoro-2-methyl-phenyl)-6-(2-hydroxymethyl-2,5-dihydro-pyrrol-1-yl)-pyridin-3-yl]-N-methyl-isobutyramide]: the Ki in experiment [1] is 1.58 nM; on human NK1 receptor it was 2.51 nM.

In the case of `Cc1cc(F)ccc1-c1cc(N2C[C@H](O)C[C@H]2CO)ncc1N(C)C(=O)C(C)(C)c1cc(C(F)(F)F)cc(C(F)(F)F)c1` [Example 158, (2S,4R)-2-(3,5-Bis-trifluoromethyl-phenyl)-N-[4-(4-fluoro-2-methyl-phenyl)-6-(4-hydroxy-2-hydroxymethyl-pyrrolidin-1-yl)-pyridin-3-yl]-N-methyl-isobutyramide], the Ki was 0.955 nM in experiment [1] and 1.66 nM on human NK1 receptor.

Consider `Cc1cc(F)ccc1-c1cc(N2CCC[C@H]2C(C)(C)O)ncc1N(C)C(=O)C(C)(C)c1cc(C(F)(F)F)cc(C(F)(F)F)c1` [Example 159, (S)-2-(3,5-Bis-trifluoromethyl-phenyl)-N-{4-(4-fluoro-2-methyl-phenyl)-6-[2-(1-hydroxy-1-methyl-ethyl)-pyrrolidin-1-yl]-pyridin-3-yl}-N-methyl-isobutyramide], for which the inhibition constant (Ki) in experiment [1] is 9.55 nM; on human NK1 receptor, 1.78 nM.

As for `CN(C(=O)C(C)(C)c1cc(C(F)(F)F)cc(C(F)(F)F)c1)c1cnc(N2CCCC[C@@H]2CO)cc1-c1ccccc1Cl` [Example 160, (R)-2-(3,5-Bis-trifluoromethyl-phenyl)-N-[4′-(2-chloro-phenyl)-2-hydroxymethyl-3,4,5,6-tetrahydro-2H-[1,2′]bipyridinyl-5′-yl]-N-methyl-isobutyramide], the Ki in experiment [1] is 30.2 nM; at human NK1 receptor it was 2.04 nM.

Consider `CN(C(=O)C(C)(C)c1cc(C(F)(F)F)cc(C(F)(F)F)c1)c1cnc(N2CCCC[C@H]2CO)cc1-c1ccccc1Cl` [Example 161, (S)-2-(3,5-Bis-trifluoromethyl-phenyl)-N-[4′-(2-chloro-phenyl)-2-hydroxymethyl-3,4,5,6-tetrahydro-2H-[1,2′]bipyridinyl-5′-yl]-N-methyl-isobutyramide], for which the Ki in experiment [1] is 6.76 nM; on human NK1 receptor it was 11.5 nM.

Consider `Cc1cc(F)ccc1-c1cc(N2CC(O)C2)ncc1N(C)C(=O)C(C)(C)c1cc(C(F)(F)F)cc(C(F)(F)F)c1` [Example 162, 2-(3,5-Bis-trifluoromethyl-phenyl)-N-[4-(4-fluoro-2-methyl-phenyl)-6-(3-hydroxy-azetidin-1-yl)-pyridin-3-yl]-N-methyl-isobutyramide], for which the Ki is 18.6 nM in experiment [1] and 2.09 nM on human NK1 receptor.

Regarding `Cc1ccccc1-c1cc(N2CC(O)C2)ncc1N(C)C(=O)C(C)(C)c1cc(C(F)(F)F)cc(C(F)(F)F)c1` [Example 163, 2-(3,5-Bis-trifluoromethyl-phenyl)-N-[6-(3-hydroxy-azetidin-1-yl)-4-o-tolyl-pyridin-3-yl]-N-methyl-isobutyramide], the Ki was 28.2 nM in experiment [1] and 1.82 nM at human NK1 receptor.

As for `Cc1cc(F)ccc1-c1cc(N2CCNC(=O)CC2)ncc1N(C)C(=O)C(C)(C)c1cc(C(F)(F)F)cc(C(F)(F)F)c1` [Example 164, 2-(3,5-Bis-trifluoromethyl-phenyl)-N-[4-(4-fluoro-2-methyl-phenyl)-6-(5-oxo-[1,4]diazepan-1-yl)-pyridin-3-yl]-N-methyl-isobutyramide], the Ki in experiment [1] is 15.8 nM; on human NK1 receptor, 1.62 nM.

Turning to `Cc1cc(F)ccc1-c1cc(N2CCC[C@H]2CO)ncc1N(C)C(=O)C(C)(C)c1cc(C(F)(F)F)cc(C(F)(F)F)c1` [Example 165, (S)-2-(3,5-Bis-trifluoromethyl-phenyl)-N-[4-(4-fluoro-2-methyl-phenyl)-6-(2-hydroxymethyl-pyrrolidin-1-yl)-pyridin-3-yl]-N-methyl-isobutyramide], the values for the Ki (in experiment [1]; at human NK1 receptor) were 1.1 nM and 2.09 nM, respectively.

`Cc1ccc(F)cc1-c1cc(N2CCC[C@H]2CO)ncc1N(C)C(=O)C(C)(C)c1cc(C(F)(F)F)cc(C(F)(F)F)c1` [Example 166, (S)-2-(3,5-Bis-trifluoromethyl-phenyl)-N-[4-(5-fluoro-2-methyl-phenyl)-6-(2-hydroxymethyl-pyrrolidin-1-yl)-pyridin-3-yl]-N-methyl-isobutyramide]: the inhibition constant Ki in experiment [1] was 1.2 nM; at human NK1 receptor it was 3.8 nM.

With `Cc1c(F)cccc1-c1cc(N2CCC[C@H]2CO)ncc1N(C)C(=O)C(C)(C)c1cc(C(F)(F)F)cc(C(F)(F)F)c1` [Example 167, (S)-2-(3,5-Bis-trifluoromethyl-phenyl)-N-[4-(3-fluoro-2-methyl-phenyl)-6-(2-hydroxymethyl-pyrrolidin-1-yl)-pyridin-3-yl]-N-methyl-isobutyramide], the Ki in experiment [1] is 0.977 nM; at human NK1 receptor, 4.47 nM.

As for `Cc1ccccc1-c1cc(N2CCC[C@@H]2CO)ncc1N(C)C(=O)C(C)(C)c1cc(C(F)(F)F)cc(C(F)(F)F)c1` [Example 168, (R)-2-(3,5-Bis-trifluoromethyl-phenyl)-N-[6-(2-hydroxymethyl-pyrrolidin-1-yl)-4-o-tolyl-pyridin-3-yl]-N-methyl-isobutyramide], the Ki in experiment [1] is 10 nM; at human NK1 receptor it was 2.09 nM.

For the molecule `Cc1cc(F)ccc1-c1cc(N2CCC[C@H]2CN2CCCC2)ncc1N(C)C(=O)C(C)(C)c1cc(C(F)(F)F)cc(C(F)(F)F)c1` [Example 169, (S)-2-(3,5-Bis-trifluoromethyl-phenyl)-N-[4-(4-fluoro-2-methyl-phenyl)-6-(2-pyrrolidin-1-ylmethyl-pyrrolidin-1-yl)-pyridin-3-yl]-N-methyl-isobutyramide], the values for the Ki (in experiment [1]; on human NK1 receptor) were 21.4 nM and 1.41 nM, respectively.

Turning to `Cc1ccccc1-c1cc(N2CCC(CO)CC2)ncc1N(C)C(=O)C(C)(C)c1cc(C(F)(F)F)cc(C(F)(F)F)c1` [Example 172, 2-(3,5-Bis-trifluoromethyl-phenyl)-N-(4-hydroxymethyl-4′-o-tolyl-3,4,5,6-tetrahydro-2H-[1,2′]bipyridinyl-5′-yl)-N-methyl-isobutyramide], the Ki in experiment [1] was 12.9 nM; at human NK1 receptor, 7.08 nM.

In the case of `Cc1ccccc1-c1cc(NC[C@@H](C)O)ncc1N(C)C(=O)C(C)(C)c1cc(C(F)(F)F)cc(C(F)(F)F)c1` [Example 173, (R)-2-(3,5-Bis-trifluoromethyl-phenyl)-N-[6-(2-hydroxy-propylamino)-4-o-tolyl-pyridin-3-yl]-N-methyl-isobutyramide], the Ki in experiment [1] is 1.86 nM; on human NK1 receptor it was 1.91 nM.

Turning to `Cc1cc(F)ccc1-c1cc(N2CCOC[C@H]2CO)ncc1N(C)C(=O)C(C)(C)c1cc(C(F)(F)F)cc(C(F)(F)F)c1` [Example 174, (R)-2-(3,5-Bis-trifluoromethyl-phenyl)-N-[4-(4-fluoro-2-methyl-phenyl)-6-(3-hydroxymethyl-morpholin-4-yl)-pyridin-3-yl]-N-methyl-isobutyramide], the values for the Ki (in experiment [1]; at human NK1 receptor) were 2.57 nM and 1.66 nM, respectively.
